Results on one substance are retold here after patent US10898577B2, “Conjugate of ginsenoside compound K and glycol chitosan and an anti-tumor use thereof” (priority 2015, dated 2021).

This series has as its system HT-29 (human colon cancer) cell line.

Experimental: To observe the anticancer activity of the GC-CK conjugates, the cytotoxicity of pure GC, CK, and GC-CK conjugates were confirmed in anticancer cells by MTT assay.
Specifically, the HT-29 (human colon cancer) cell line was purchased from the Korean Cell Line Bank (Seoul, Korea) and cultured in RPMI 1640 medium (Welgene, Inc.) containing 1% (w/v) penicillin-streptomycin (Welgene, Inc.) and 10% (v/v) FBS (Welgene, Inc.) in 5% CO2 and 95% humidity at 37° C. The cells were inoculated at a density of 2×10^4 cells/well in 96-well plates (SPL Life Sciences, Korea). After growing for 24 h, the culture medium was replaced with the culture medium containing 100 μL, of various concentrations of GC, standard GC, and GC-CK and cultured for 24 h at 37° C. Next, 10 μL of 3-(4, 5-dimethylthiazol-2-yl)-2, 5-diphenyl-tertazolium bromide) (MTT) was added and the plates were cultured for 3 hours at 37° C. The culture medium was then removed and blue formazan crystals were dissolved with 100 μL of DMSO. The optical density was measured at 570 nm using a Synergy HT multidetection microplate reader (Molecular Devices, BioTek Instruments, Winooski, Vt., USA).

In the case of Glycol chitosan [GC], the “cytotoxicity in HT29 cells” value is recorded as “did not exhibit any cytotoxicity”.
